This note sets out measurements from PubChem BioAssay (NCI).

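48-hour exposure; five concentrations; linearly interpolated endpoints. TGI: total growth inhibition.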

Among the test systems are HCT-15 colon; HL-60(TB) leukemia; HS 578T breast; M14 melanoma; NCI-H522 lung; NCI/ADR-RES ovarian; OVCAR-8 ovarian; SK-MEL-28 melanoma; SK-MEL-5 melanoma; SK-OV-3 ovarian.
Holding throughout (test): NCI tumour cell line growth inhibition, 48 h

For the molecule `CCOc1cc(C=Nc2ccc(Oc3ccc(Cl)cc3)c(Cl)c2)ccc1O`, the TGI with HCT-15 colon amounted to 47.3 µM; with HL-60(TB) leukemia, 57.4 µM; with HS 578T breast, 45.4 µM; in the test with M14 melanoma, 77.6 µM; in the test with NCI-H522 lung it was 31.9 µM; with NCI/ADR-RES ovarian, 52.9 µM. Moreover, the TGI with OVCAR-8 ovarian worked out at 65.4 µM; with SK-MEL-28 melanoma, 63.1 µM; in the test with SK-MEL-5 melanoma, 52.9 µM; in the test with SK-OV-3 ovarian, 58.3 µM.
With `Cc1cc2nnn(C3CCCO3)c2cc1C` (stereo not drawn), the TGI in the test with HCT-15 colon, in the test on HL-60(TB) leukemia, in the test on HS 578T breast, in the test with M14 melanoma, in the test on NCI-H522 lung and with NCI/ADR-RES ovarian was over 100 µM throughout. Further, the TGI in the test with OVCAR-8 ovarian, with SK-MEL-5 melanoma and in the test on SK-OV-3 ovarian was over 100 µM throughout.
For `NC(=S)NS(=O)(=O)c1ccc(Cl)cc1Cl`, the TGI in the test with HCT-15 colon, in the test with HL-60(TB) leukemia, in the test with HS 578T breast, in the test with M14 melanoma, in the test on NCI-H522 lung and in the test with NCI/ADR-RES ovarian was over 100 µM in each case. Besides, the TGI in the test with OVCAR-8 ovarian, in the test on SK-MEL-28 melanoma, in the test with SK-MEL-5 melanoma and in the test on SK-OV-3 ovarian was over 100 µM throughout.
For the molecule `COC(=O)[C@]12CCC(=O)N1[C@H](C(=O)O)Cc1c2[nH]c2ccccc12`, the TGI in the test with HCT-15 colon, in the test with HS 578T breast, in the test on M14 melanoma, with NCI-H522 lung, with NCI/ADR-RES ovarian and with OVCAR-8 ovarian was over 100 µM in each case. Further, the TGI with SK-MEL-28 melanoma, in the test on SK-MEL-5 melanoma and in the test on SK-OV-3 ovarian was over 100 µM in each case.
Take `Cc1ccc2c3ccc4c(c3n(C)c2c1)C(=O)C=CC4=O`: the TGI in the test on HCT-15 colon is over 10 µM; with HL-60(TB) leukemia, 3.9 µM; in the test on HS 578T breast, over 10 µM; with M14 melanoma it was over 10 µM; in the test with NCI-H522 lung it was 4.75 µM; with NCI/ADR-RES ovarian it was over 10 µM. Also, the TGI with OVCAR-8 ovarian, with SK-MEL-28 melanoma, in the test on SK-MEL-5 melanoma and with SK-OV-3 ovarian was over 10 µM throughout.
`CN(C)CCCN1C(=O)N(CCCN(C)C)c2c3cc(O)ccc3nc3c([N+](=O)[O-])ccc1c23`: the TGI in the test with HCT-15 colon was over 100 µM; in the test with HS 578T breast, 60 µM; with M14 melanoma it was 79.1 µM; in the test with NCI-H522 lung, 20.5 µM; in the test on NCI/ADR-RES ovarian it was over 100 µM; with OVCAR-8 ovarian, 37.2 µM. Besides, the TGI is over 100 µM with SK-MEL-28 melanoma, 30.4 µM in the test with SK-MEL-5 melanoma and over 100 µM in the test on SK-OV-3 ovarian.
Consider `O=c1[nH]nc(Cc2ccc([N+](=O)[O-])cc2)[nH]1`, for which the TGI with HCT-15 colon, with HL-60(TB) leukemia, in the test with HS 578T breast, in the test on M14 melanoma, with NCI-H522 lung and with NCI/ADR-RES ovarian was over 100 µM throughout. In addition, the TGI in the test with OVCAR-8 ovarian, with SK-MEL-28 melanoma and in the test on SK-MEL-5 melanoma was over 100 µM in each case.
As for `CNc1ccc([N+](=O)[O-])cc1C(=O)N1CCC[C@H]1CO`, the TGI in the test with HCT-15 colon, in the test with HL-60(TB) leukemia, in the test with HS 578T breast, in the test on M14 melanoma, in the test on NCI-H522 lung and in the test with NCI/ADR-RES ovarian was over 100 µM each time. Further, the TGI in the test on OVCAR-8 ovarian, with SK-MEL-28 melanoma, with SK-MEL-5 melanoma and in the test with SK-OV-3 ovarian was over 100 µM throughout.
`CC[N+]1(C)CCC(O)(/C=C/c2ccc(Cl)c(Cl)c2)C(C(=O)/C=C/c2ccc(Cl)c(Cl)c2)C1` (stereo not drawn): the TGI in the test with HCT-15 colon was 7.13 µM; with HS 578T breast it was 7.66 µM; in the test on M14 melanoma, over 23.3 µM; in the test with NCI-H522 lung, 3.34 µM; in the test with NCI/ADR-RES ovarian it was 6.63 µM; in the test on OVCAR-8 ovarian, 8.97 µM. Also, the TGI was 4.37 µM in the test on SK-MEL-28 melanoma, 7.68 µM with SK-MEL-5 melanoma and 16.5 µM in the test on SK-OV-3 ovarian.
With `COc1cc2c(cc1OCc1ccccc1)NC(=O)[C@@H]1C[C@@H](O)CN1C2=O`, the TGI with HCT-15 colon, with HS 578T breast, with M14 melanoma, with NCI-H522 lung, with NCI/ADR-RES ovarian and with OVCAR-8 ovarian was over 100 µM in each case. For the same molecule, the TGI with SK-MEL-28 melanoma, in the test with SK-MEL-5 melanoma and in the test on SK-OV-3 ovarian was over 100 µM throughout.
With `COC(=O)C1CC(C=O)=C(SC)N1` (stereo not drawn), the TGI in the test with HCT-15 colon, with HS 578T breast, in the test with M14 melanoma, in the test with NCI-H522 lung, with NCI/ADR-RES ovarian and in the test with OVCAR-8 ovarian was over 50 µM in each case. Further, the TGI with SK-MEL-28 melanoma, with SK-MEL-5 melanoma and in the test with SK-OV-3 ovarian was over 50 µM each time.
With `C=C(Cl)C(=C)CCC(Cl)C(C)(C)Cl` (stereo not drawn), the TGI in the test with HL-60(TB) leukemia, in the test on HS 578T breast, in the test on M14 melanoma, in the test on NCI-H522 lung, with NCI/ADR-RES ovarian and in the test on SK-MEL-28 melanoma was over 100 µM each time. Moreover, the TGI in the test with SK-MEL-5 melanoma and in the test with SK-OV-3 ovarian was over 100 µM in each case.
Consider `OCC1=C[C@@](COCc2ccccc2)(OCc2ccccc2)[C@@H](OCc2ccccc2)[C@@H]1OCc1ccccc1`, for which the TGI was 57.8 µM in the test with HCT-15 colon; 65.9 µM in the test with HL-60(TB) leukemia; 87.6 µM with HS 578T breast; over 100 µM in the test on M14 melanoma; 51 µM with NCI-H522 lung; 16.9 µM with NCI/ADR-RES ovarian. For the same molecule, the results for the TGI in the test with OVCAR-8 ovarian, with SK-MEL-28 melanoma and in the test on SK-MEL-5 melanoma were over 100 µM, over 100 µM and 30.5 µM, respectively.
As to `O=[N+]([O-])c1ccc(-c2nc3ccccc3o2)cc1`, the TGI with HCT-15 colon, in the test with HS 578T breast, in the test with M14 melanoma, in the test with NCI-H522 lung, with NCI/ADR-RES ovarian and with OVCAR-8 ovarian was over 100 µM each time. Besides, the TGI in the test with SK-MEL-28 melanoma, in the test on SK-MEL-5 melanoma and with SK-OV-3 ovarian was over 100 µM each time.
In the case of `CC1=C(C(=O)OC(C)C)C(c2cccc([N+](=O)[O-])c2)C(C(=O)OC(CO[N+](=O)[O-])CO[N+](=O)[O-])=C(C)N1` (stereo not drawn), the TGI with HCT-15 colon is 19 µM; with HS 578T breast, over 41.9 µM; in the test with M14 melanoma it was 12.7 µM; with NCI-H522 lung, 6.77 µM; with NCI/ADR-RES ovarian, over 25.2 µM; with OVCAR-8 ovarian, over 100 µM. In addition, the TGI is 33.7 µM with SK-MEL-28 melanoma, 4.13 µM with SK-MEL-5 melanoma and over 100 µM in the test with SK-OV-3 ovarian.
